Patent US7105531B2, “Tricyclic protein kinase inhibitors” (WYETH, priority 1999, dated 2006)

Experiments:
[1] = molecular target: T1, recombinant human MEK 1 (MAPKK) and recombinant human ERK2 (MAPK) (Homo sapiens, UniProt P28482+Q02750); experiment: Mitogen Activated Protein Kinase (MAPK) coupled Mek-Erk test procedure; type: biochemical
T1 construct: GST
Method: To evaluate inhibitors of the MAP (mitogen activated protein) kinase a two component coupled standard pharmacological test procedure, which measures phosphorylation of a serine/threonine residue in an appropriate sequence in the substrate in the presence and absence of a putative inhibitor, is used. Recombinant human MEK 1 (MAPKK) is first used to activate recombinant human ERK2 (MAPK) and the activated MAPK (ERK) is incubated with substrate (myelin basic protein peptide (MBPP) or Myc peptide) in the presence of ATP, Mg^+2 and radiolabeled ^33P ATP. The phosphorylated peptide is captured on a P 81 phosphocellulose filter (paper filter or embedded in microtiter plate) washed and counted by scintillation methods.
The peptide substrates used in the assay are MBPP, peptide substrate ([…]), or synthetic Myc substrate, ([…].5 TFA). The recombinant enzymes used are prepared as GST fusion proteins of human ERK 2 and human MEK 1. Inhibitor samples are prepared as 10× stocks in 10% DMSO and an appropriate aliquot is used to deliver either 10 ug/ml for a single point screening dose or 100 to 0.0001 uM final concentration for a dose response curve. Final DMSO concentrations are less than or equal to 1%.
The reaction is run as follows in 50 mM Tris kinase buffer, pH 7.4 in a reaction volume of 50 ul. The appropriate volume of kinase buffer and inhibitor sample is added to the tube. Appropriate dilution of enzyme is delivered to give 2–5 ug recombinant MAPK (Erk) per tube. The inhibitor is incubated with MAPK (Erk) for 30 min at 0 deg. C. Recombinant Mek (MAPKK) (0.5–2.5 ug) or fully activated Mek (0.05–0.1 units) is added to activate the Erk and incubated for 30 min at 30° C. Then substrate and γ^33P ATP are added to give a final concentration of 0.5–1 mM MBPP or 250–500 uM Myc; 0.2–0.5 uCi gamma P 33 ATP/tube; 50 μM ATP final concentration. Samples are incubated at 30° C. for 30 minutes and the reaction is stopped by adding 25 μl of ice cold 10% trichloroacetic acid (TCA). After samples are chilled on ice for 30 min. 20 μl of sample is transferred onto P 81 phosphocellulose filter. Filter papers are washed 2 times with a large volume of 1% acetic acid, then 2 times with water. The filters are briefly air dried before addition of scintillant and samples are counted in the appropriate scintillation counter set up for reading ^33P isotope. Samples include a positive control (activated enzyme plus substrate); a no enzyme control; a no substrate control; samples with different concentrations of putative inhibitor, and samples with reference inhibitors (other active compounds or non-specific inhibitors such as staurosporine or K252 B).
The raw data is captured as cpm. Sample replicates are averaged and corrected for background count. Mean cpm data is tabulated by group and % inhibition by a test compound is calculated as (corrected cpm control−corrected. cpm sample/control)×100=% inhibition).

HT-29 cells = experiment: Cell proliferation test procedure, HT-29 cells; type: cell-based; details: Homo sapiens, read-out: HT-29 prolif IC50
Method: HT-29 cells: Compound effectiveness at inhibiting cell proliferation on plastic is performed in a 96-well format by plating 5000 cells per well in appropriate medium on day one, followed by compound addition on day 2 in serial two-fold dilutions. On day five, compound is washed away and medium containing MTS reagent (Promega) is added. Relative cell number is determined by reading the absorbance at 490 nm of a dye produced by an NAD-dependent cellular enzymatic reaction.

p60^c-src (Src) = molecular target: T2, p60^c-src (Src) (Homo sapiens, UniProt P12931); experiment: Src kinase test procedure (Elisa format); type: biochemical
T2 construct: purchased Upstate Biotechnologies
T2 sequence (P12931 whole entry, species assumed): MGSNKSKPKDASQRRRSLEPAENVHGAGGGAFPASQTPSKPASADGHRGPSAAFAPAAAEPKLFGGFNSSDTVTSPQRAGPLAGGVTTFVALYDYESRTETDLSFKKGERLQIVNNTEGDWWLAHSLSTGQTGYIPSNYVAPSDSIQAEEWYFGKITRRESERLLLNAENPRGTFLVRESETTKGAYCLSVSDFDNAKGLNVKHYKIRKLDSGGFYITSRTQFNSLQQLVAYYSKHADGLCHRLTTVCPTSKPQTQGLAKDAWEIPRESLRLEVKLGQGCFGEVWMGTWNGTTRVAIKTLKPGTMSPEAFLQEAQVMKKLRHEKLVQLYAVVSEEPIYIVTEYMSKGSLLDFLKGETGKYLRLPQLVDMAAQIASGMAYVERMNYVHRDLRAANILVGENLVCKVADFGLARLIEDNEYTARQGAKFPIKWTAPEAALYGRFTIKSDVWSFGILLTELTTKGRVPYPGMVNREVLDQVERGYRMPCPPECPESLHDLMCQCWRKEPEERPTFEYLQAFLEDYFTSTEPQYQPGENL
Method: Inhibitors of p60^c-src (partially purified preparation purchased from Upstate Biotechnologies) tyrosine kinase activity are analyzed in an Elisa format. […] HRP-conjugated anti-phosphotyrosine is used to detect phosphorylated peptide via a color reaction. Conditions recommended by the manufacturer are employed.
The reaction mixture with the phosphorylated peptide is then transferred to a streptavidin-coated microtiter plate (provided in the kit) and allowed to bind for 20 minutes. Unbound peptide and reaction mixture is decanted and the plate is washed with PBS six times. Horseradish peroxidase-conjugated phosphotyrosine antibody supplied in the kit is incubated with the plate for one hour, then decanted. The plate is again washed with PBS six times.

[2] = molecular target: T3, Rat2 fibroblasts transformed with v-Src/Hu c-Src fusion gene (Homo sapiens, UniProt P12931, cells depend on it, form not given); experiment: Anchorage independent Src-transformed fibroblast proliferation test procedure; type: cell-based, rat; details: for GI50: rat2 fibroblasts transformed with v-src/hu c-src fusion gene, read-out: Src TF prolif IC50; for Src TF prolif % Inh: @ dose 10 μM
T3 construct: fused on or other part: The v-Src frame of Rous sarcoma virus: everything outside the catalytic domain, namely the N-terminal unique/SH3/SH2 part; Candidates are Prague C (P00526), then Schmidt-Ruppin A (P00524)
T3 sequence (P12931 whole entry, change not shown, the tested form may be a part): as the sequence (P12931 whole entry, species assumed) above
Description: Anchorage Independent Src-transformed Fibroblast Proliferation Test Procedure: Rat2 fibroblasts stably transformed with a plasmid containing CMV promotor controlled v-Src/Hu c-Src fusion gene in which the catalytic domain of human c-Src is inserted in place of the v-Src catalytic domain in the v-Src gene are used for the measurement of src dependent suspension growth.

SMILES | Mek-Erk IC50 [1] | melting point | other results
N#Cc1cnc2cc3ccccc3cc2c1Nc1ccc(Oc2ccccc2)cc1 [Example 3, 4-(4-Phenoxyanilino)benzo[g]quinoline-3-carbonitrile] | 0.2 µM | 250 to 251 °C | 
COc1cc(Nc2c(C#N)cnc3cc4cc(OCCN5CCOCC5)c(OC)cc4cc23)c(Cl)cc1C [Example 216, 4-(2-Chloro-5-methoxy-4-methylphenylamino)-7-methoxy-8-(2-morpholin-4-yl-ethoxy)benzo[g]quinoline-3-carbonitrile] |  | 220 to 222 °C | IC50 (HT-29 cells): 9.95 µM
COc1cc(Nc2c(C#N)cnc3cc4cc(OCCN5CCN(C)CC5)c(OC)cc4cc23)c(C)cc1Cl [Example 133, 4-(4-chloro-5-methoxy-2-methylanilino)-7-methoxy-8-[2-(4-methyl 1-piperazinyl)ethoxy]benzo[g]quinoline-3-carbonitrile] |  |  | IC50 (HT-29 cells): 8.6 µM
COc1cc(Nc2c(C#N)cnc3cc4cc(OCCN5CCN(C)CC5)c(OC)cc4cc23)c(Cl)cc1C [Example 203] |  |  | IC50 (p60^c-src (Src)): 4.2 nM; GI50 [2]: 71 nM
COc1ccc(Cl)c(Nc2c(C#N)cnc3c2C=C2N=CN=C2C3)c1 [Example 40, 8-(2-Chloro-5-methoxy-phenylamino)imidazo[4,5-g]quinoline-7-carbonitrile] | 0.5 µM | 296 to 298 °C | Src TF prolif % Inh [2]: 0%
COc1cc(Nc2c(C#N)cnc3c2sc2ccc([N+](=O)[O-])cc23)c(C)cc1Cl [Example 75] |  |  | Src % Inh (p60^c-src (Src); dose 10 μM): 0%
N#Cc1cnc2c(sc3ccccc32)c1Nc1ccc(Oc2ccccc2)cc1 [Example 69, 4-(4-Phenoxyphenylamino)benzo[4,5]thieno[3,2-b]pyridine-3-carbonitrile] | 3 µM | 230 to 233 °C | 
N#Cc1cnc2c(c1Nc1ccc(Oc3ccccc3)cc1)C=C1N=CN=C1C2 [Example 44, 8-(4-Phenoxyanilino)imidazo[4,5-g]quinoline-7-carbonitrile] | 0.03 µM | > 270 °C | 
N#Cc1cnc2c(c1Nc1ccc(Cl)cc1Br)C=C1N=CN=C1C2 [Example 38, 8-(2-Bromo-4-chlorophenylamino)imidazo[4,5-g]quinoline-7-carbonitrile] | 1.3 µM | 244 to 246 °C | Src TF prolif % Inh [2]: 0%
COc1cc(Nc2c(C#N)cnc3c2C=C2N=CN=C2C3)c(Br)cc1Cl [Example 39, 8-(2-Bromo-4-chloro-5-methoxyphenylamino)imidazo[4,5-g]quinoline-7-carbonitrile] | 1.3 µM | 257 °C (dec.) | Src TF prolif % Inh [2]: 25%
COc1cc(Nc2c(C#N)cnc3cc4cc(OC)c(OCCN5CCOCC5)cc4cc23)c(Cl)cc1F [Example 209, 4-(2-Chloro-4-fluoro-5-methoxyanilino)-8-methoxy-7-[2-(4-morpholinyl)ethoxy]benzo[g]quinoline-3-carbonitrile] |  | 204 to 214 °C | GI50 [2]: 309 nM
